Tested on: EAAT2
Assay: EAAT2 protein levels in PA-EAAT2 cells by Western blot
Format: cell-based, human
Settings: for Improvement of potency/activity compared to 1: compared to compound 1, Table 4; for Fold increase for EAAT2, 4 h / Fold increase for EAAT2, 24 h: compound 10 μM, PA-EAAT2 cells, relative to DMSO controls, na = not active; for Fold increase for EAAT2, 4 h: 4 h incubation; for Fold increase for EAAT2, 24 h: 24 h incubation; for SAR comparison of activity on EAAT2 protein levels, in words: relative to parent/comparator analogue, Tables 1-4
Description: All of the derivates of 1 were initially evaluated in PA-EAAT2 cells^3 (a primary astrocyte line stably expressing EAAT2 mRNAs) following compound (10 μM) incubation for 4 and 24 h before harvesting and measuring EAAT2 levels by Western blot analysis. The fold increases in EAAT2 protein levels relative to DMSO controls are reported (Tables 1-4).
Characterization and efficacy studies of a compound, Compound 212320 (FIG. 6A) is shown. […] In the absence of serum, PA-EAAT2 cells express low amounts of EAAT2 protein, although the recombinant EAAT2 mRNA are expressed (translational silencing); however, EAAT2 protein levels are increased when an activator is added to the culture (translational activation). This cell line was used for high-throughput screening to identify EAAT2 translational activators. To prioritize candidate compounds, we initially evaluated activation of EAAT2 protein in PA-EAAT2 cells. Promising compounds were further evaluated in primary dissociated neuron and astrocyte mixed cultures and then in mice. FIG. 6 presents the characterization of Compound 212320 in PA-EAAT2 cells. Compound 212320 increased EAAT2 protein levels in a dose—(FIG. 6B) and time—(FIG. 6C) dependent manner. Importantly, the induction occurred in a short amount of time (within 1-2 hr) and was sustained even up to 72 hr (data not show). Additionally, induction occurred at low nanomolar concentrations. […] (FIG. 6D).

CC(Sc1ccc(-c2ccccn2)nn1)c1c(F)cccc1Cl (racemic) [Compound 7-14]
Improvement of potency/activity compared to 1: about 3 fold | Fold increase for EAAT2, 4 h: 1.7 ± 0.9 fold | Fold increase for EAAT2, 24 h: 5.5 ± 1.0 fold

Clc1ccccc1CCSc1ccc(-c2ccccn2)nn1 [Compound 7-31]
Fold increase for EAAT2, 4 h: 1.7 ± 0.2 fold | Fold increase for EAAT2, 24 h: 4.8 ± 0.6 fold | SAR comparison of activity on EAAT2 protein levels, in words: more potent

O=S(=O)(Cc1ccccc1Cl)c1ccc(-c2ccccn2)nn1 [Compound 9-3]
Fold increase for EAAT2, 4 h: 1.6 ± 0.3 fold | SAR comparison of activity on EAAT2 protein levels, in words: detrimental

Clc1ccccc1CSc1ccc(-c2cccnc2)nn1 [Compound 7-8]
Fold increase for EAAT2, 4 h: 1.2 ± 0.4 fold | Fold increase for EAAT2, 24 h: 1.2 ± 0.3 fold | SAR comparison of activity on EAAT2 protein levels, in words: reduced activity

Clc1cccc(CSc2ccc(-c3ccccn3)nn2)c1 [Compound 7-18]
Improvement of potency/activity compared to 1: two-fold | Fold increase for EAAT2, 4 h: 2.1 ± 0.3 fold | Fold increase for EAAT2, 24 h: 4.1 ± 0.5 fold

Fc1cccc(Cl)c1CSc1ccc(-c2ccccn2)nn1 [Compound 1]
EAAT2 protein levels, dose dependence (after 24 h exposure): dose-dependent increase | Fold increase for EAAT2, 24 h: 2.0 ± 0.8 fold

Fc1cc(F)c(CSc2ccc(-c3ccccn3)nn2)c(F)c1 [Compound 7-26]
Fold increase for EAAT2, 4 h: 1.6 ± 1.0 fold | Fold increase for EAAT2, 24 h: 2.4 ± 0.6 fold | SAR comparison of activity on EAAT2 protein levels, in words: did not result in significant improvement

CC(C)OC(=O)c1ccc(-c2ccccn2)nn1 [Compound 27]
Activity (EAAT2 increase), in words (compounds 23-27 assessed): active

Cc1cccc(C)c1CSc1ccc(-c2ccccn2)nn1 [Compound 7-13]
Fold increase for EAAT2, 24 h: 6.5 ± 1.0 fold | SAR comparison of activity on EAAT2 protein levels, in words: increased potency

Fc1cccc(Cl)c1CCSc1ccc(-c2ccccn2)nn1 [Compound 7-15]
Fold increase for EAAT2, 4 h: 1.9 ± 0.7 fold | Fold increase for EAAT2, 24 h: 6.7 ± 1.5 fold | SAR comparison of activity on EAAT2 protein levels, in words: more potent

Fc1cccc(F)c1CSc1ccc(-c2ccccn2)nn1 [Compound 7-25]
Fold increase for EAAT2, 4 h: 2.1 ± 1.4 fold | Fold increase for EAAT2, 24 h: 2.2 ± 0.7 fold | SAR comparison of activity on EAAT2 protein levels, in words: did not result in significant improvement

Clc1cccc(CSc2ccc(-c3ccccn3)nn2)c1Cl [Compound 7-19]
Fold increase for EAAT2, 24 h: 2.4 ± 0.4 fold | SAR comparison of activity on EAAT2 protein levels, in words: equivalent to 1

Fc1cccc(Cl)c1COc1ccc(-c2ccccn2)nn1 [Compound 8-2]
Fold increase for EAAT2, 4 h: 1.1 ± 0.3 fold | Fold increase for EAAT2, 24 h: 2.9 ± 0.4 fold

Clc1ccccc1CSc1ccc(-c2ccncc2)nn1 [Compound 7-9]
Fold increase for EAAT2, 4 h: 1.5 ± 0.2 fold | Fold increase for EAAT2, 24 h: 1.7 ± 0.3 fold | SAR comparison of activity on EAAT2 protein levels, in words: reduced activity

Fc1cccc(Cl)c1CCOc1ccc(-c2ccccn2)nn1 [Compound 8-5]
Fold increase for EAAT2, 4 h: 2.2 ± 0.4 fold | Fold increase for EAAT2, 24 h: 3.1 ± 1.2 fold

Clc1cccc(Cl)c1CSc1ccc(-c2ccccn2)nn1 [Compound 7-22]
Improvement of potency/activity compared to 1: two-fold | Fold increase for EAAT2, 4 h: 1.5 ± 0.8 fold | Fold increase for EAAT2, 24 h: 3.9 ± 0.4 fold

Cc1cccc(CSc2ccc(-c3ccccn3)nn2)c1 [Compound 7-27]
Fold increase for EAAT2, 4 h: 2.0 ± 0.2 fold | Fold increase for EAAT2, 24 h: 2.8 ± 0.5 fold | SAR comparison of activity on EAAT2 protein levels, in words: less potent

CC(Oc1ccc(-c2ccccn2)nn1)c1c(F)cccc1Cl (racemic) [Compound 8-4]
Fold increase for EAAT2, 4 h: 1.6 ± 0.2 fold | Fold increase for EAAT2, 24 h: 3.0 ± 0.7 fold

Fc1ccc(Sc2ccc(-c3ccccn3)nn2)c(Cl)c1 [Compound 7-34]
Fold increase for EAAT2, 4 h: 1.3 ± 0.1 fold | Fold increase for EAAT2, 24 h: 2.5 ± 0.7 fold

Cc1ccccc1CNc1ccc(-c2ccccn2)nn1 [Compound 14]
Fold increase for EAAT2, 4 h: 1.7 ± 1.1 fold | Fold increase for EAAT2, 24 h: 2.6 ± 0.5 fold | SAR comparison of activity on EAAT2 protein levels, in words: weaker activity
